{"source": "patent US20130303373A1", "about": "“USE OF A COMPOSITION FOR THE INCREASE OF CROP YIELD” (GLOBACHEM, priority 2010, published 2013)", "key": {"[1]": {"test_system": "mature apple trees of the variety Jonagold, (mutant Jonagored)", "test": "Yield increase with apple (fruit set and fruit size after spraying)", "type": "in vivo", "method": "This experiment was performed on mature apple trees of the variety Jonagold, (mutant Jonagored). The sprayings were performed with an atomizer, each time applying an amount of 300 liter of water per hectare.\nS-abscisic acid (ABA) was applied alone as well as in combination with glutamine. The applications were started around the end of flowering and were repeated every 10 to 14 days. ABA was first applied in two consecutive treatments, each time using a concentration of 3.3 ppm wt, and thus in a dosing of 1.0 g/ha. The composition with glutamine was applied until the end of the growing season, and with a concentration of 50 ppm wt, and thus in a dosing of 15 g/ha. ABA was also in this test applied only twice, on April 24 and May 7. The applications of glutamine were started around the end of flowering and were repeated every 7 to 14 days, depending on the weather conditions. In total there were 7 treatments, more precisely on April 24, May 7, May 14, May 20, June 9, June 16 and June 24. Immediately after the treatments, on June 25, also the average fruit diameter was determined."}, "winter wheat": {"test_system": "winter wheat", "test": "Yield increase with wheat (ear and grain parameters)", "type": "in vivo", "method": "This experiment was performed on winter wheat. ABA was applied to the winter wheat in two different doses, respectively 2 and 4 gram/hectare. The dose of 2 gram was repeated in combination with 5 g/ha of histidine.\nThe length of the ears (expressed in mm), the number of filled spikelets, the average number of grains counted per 50 ears, and as a quality parameter also the kernel weight of 1000 […] (“1000 kernel wt”) were determined."}}, "data": [{"compound": "CC1=CC(=O)CC(C)(C)[C@@]1(O)/C=C/C(C)=C/C(=O)O", "note": "[ABA, S-abscisic acid]", "values": [{"measurement": "Fruit diameter (mm) on June 25", "setting": "[1]; ABA 2 treatments at 1.0 g/ha, glutamine 7 treatments at 15 g/ha, measured June 25", "result": 43.8, "unit": "mm"}, {"measurement": "Nr of fruits per cluster", "setting": "[1]; ABA 2 treatments at 3.3 ppm wt (1.0 g/ha), glutamine 7 treatments at 50 ppm wt (15 g/ha), 300 l water/ha", "result": 0.80}, {"measurement": "1000 kernel wt (gram)", "setting": "winter wheat; ABA 2 g/ha", "result": 43.6, "unit": "gram"}, {"measurement": "Ear Length (mm)", "setting": "winter wheat; ABA 2 g/ha", "result": 75, "unit": "mm"}, {"measurement": "Nr. filled spikelets", "setting": "winter wheat; ABA 2 g/ha", "result": 9.9}, {"measurement": "Nr. grains/50 ears", "setting": "winter wheat; ABA 2 g/ha", "result": 72.4}, {"measurement": "1000 kernel wt (gram)", "setting": "winter wheat; ABA 4 g/ha", "result": 44.8, "unit": "gram"}, {"measurement": "Ear Length (mm)", "setting": "winter wheat; ABA 4 g/ha", "result": 78, "unit": "mm"}, {"measurement": "Nr. filled spikelets", "setting": "winter wheat; ABA 4 g/ha", "result": 10.2}, {"measurement": "Nr. grains/50 ears", "setting": "winter wheat; ABA 4 g/ha", "result": 84.7}]}]}
